Measurements published in US20100068198A1, “TARGETING OF ALPHA-1 OR ALPHA-3 SUBUNIT OF NA+, K+-ATPASE IN THE TREATMENT OF PROLIFERATIVE DISEASES” (priority 2006, published 2010).
Like-named read-outs stand apart in the source and are kept apart here.

Key:
[1] = tested on: four human NSCLC cell lines; assay type: cell-based; conditions: three days, FIG. 6A
[2] = biological target: T1, α1β1 Na+/K+-ATPase (Rattus norvegicus, UniProt P06685); test: Na+,K+-ATPase activity assay on homogenates of Sf-9 cells expressing α1β1 isozyme (32Pi release from ATP); assay type: biochemical
T1 construct: made in house; host or cells: Sf-9 insect cells, baculovirus
Method: Samples were preincubated with the inhibitor for 10 min. The assay was started by the addition of ATP with 0.2 μCi γ[32P]-ATP (2 mM final concentration). […] Released 32Pi-Pi was converted into phosphomolybdate and extracted with isobutanol. The radioactivity in 150 μl of the organic phase was measured by liquid scintillation counting.

[3] = biological target: T2, α2β1 Na+/K+-ATPase (Rattus norvegicus, UniProt P06686); test: Na+,K+-ATPase activity assay on homogenates of Sf-9 cells expressing α2β1 isozyme (32Pi release from ATP); assay type: biochemical
T2 construct: made in house; host or cells: Sf-9 insect cells, baculovirus

[4] = biological target: T3, α3β1 Na+/K+-ATPase (Rattus norvegicus, UniProt P06687); test: Na+,K+-ATPase activity assay on homogenates of Sf-9 cells expressing α3β1 isozyme (32Pi release from ATP); assay type: biochemical
T3 construct: made in house; host or cells: Sf-9 insect cells, baculovirus

[5] = tested on: α1β1, α2β1 and α3β1 Na,K-ATPases; test: Na+,K+-ATPase activity assay on Sf-9 homogenates, statements for all isozymes together; assay type: biochemical
Method: Na^+,K^+-ATPase activity was assayed on homogenates of Sf-9 cells expressing the α1β1, α2β1 and α3β1 isozymes. The initial rate of release of ^32Pi from γ[^32P]-ATP was measured. The ATPase activity of 30-40 μg total protein samples was measured in a final volume of 0.25 ml in a medium containing 120 mM NaCl, 30 mM KCl, 3 mM MgCl2, 0.2 mM EGTA, 30 mM Tris-HCl (pH 7.4)±particular concentrations of a tested agent, e.g., herein compound 2.
Samples were preincubated with the inhibitor for 10 min. The assay was started by the addition of ATP with 0.2 μCi γ[32P]-ATP (2 mM final concentration). Following 30 min incubation at 37° C. the tubes were placed on ice, and the reaction was terminated by the addition of 25 μL of 55% trichloroacetic acid. Released 32Pi-Pi was converted into phosphomolybdate and extracted with isobutanol. The radioactivity in 150 μl of the organic phase was measured by liquid scintillation counting. […] The specific activity was therefore determined as the difference in ATP hydrolysis in the presence and absence of 0.0001 M compound 2.
To determine the effect of compound 2 on the activity of the Na^+/K^+-ATPase and its various isozymes, α1β1, α2β1 and α3β1 sodium pump complexes were produced using the baculovirus expression system and dose-response curves to the compound were performed. […]

[6] = tested on: C6 rat glioma, MXT mouse mammary carcinoma and mouse B16F10 melanoma cell lines; test: In vitro anti-tumour effect on three rodent cancer cell lines; assay type: cell-based; conditions: high doses (10 μM), FIG. 6B
From the text: We also made use of three murine cell lines, i.e., three cancer cell lines including the C6 rat glioma, the MXT mouse mammary adenocarcinomas and the mouse B16F10 melanoma models.
Then, we made use of three rodent cancer cell lines, i.e. the C6 rat glioma, the MXT mouse […] mammary carcinoma and the mouse B16F10 melanoma models.

[7] = biological target: T1, α1β1 Na+/K+-ATPase; conditions: Table 4A, from Blanco et al. 2005; read-out: inhibition constant (Ki) α1β1; cited from earlier work

SMILES: C[C@H]1O[C@@H](O[C@H]2[C@@H](O)C[C@H](O[C@H]3[C@@H](O)C[C@H](O[C@H]4CC[C@@]5(C)[C@H](CC[C@@H]6[C@@H]5CC[C@]5(C)[C@@H](C7=CC(=O)OC7)CC[C@]65O)C4)O[C@@H]3C)O[C@@H]2C)C[C@H](O)[C@@H]1O [digitoxin]
- impairment of global growth (rank among four cardenolides) [1]: digoxin<digitoxin<ouabain<Compound 2

SMILES: C[C@@H]1CC2(NC(=O)CS2)[C@]2(O)O[C@@H]3C[C@]4(CO)C5CC[C@]6(C)[C@@H](C7=CC(=O)OC7)CC[C@]6(O)[C@@H]5CC[C@H]4C[C@H]3O[C@@H]2O1 (stereo partly shown) [Compound 2]
- Ki ([2]; Sf-9 expressed α1β1, Table 4A, read-out: inhibition constant (Ki) α1β1): 160 ± 70 nM
- potency of α1β1 inhibition relative to ouabain ([2]; ratio of Ki versus ouabain): approximately 100 times
- Ki [3]: 15 ± 8 nM
- Ki [4]: 3.2 ± 3.4 nM
- ATPase activity at 0.0001 M compound versus 0.001 M ouabain ([5]; 0.0001 M compound 2): comparable to that obtained with 0.001 M ouabain
- effect on Na,K-ATPase isozymes ([5]; all α1β1, α2β1 and α3β1): inhibitory effect
- impairment of global growth (rank among four cardenolides) [1]: strongest
- anti-tumor effects in rodent cancer cell lines [6]: displays actual anti-tumor effects

SMILES: C[C@@H]1O[C@@H](O[C@H]2C[C@@H](O)[C@]3(CO)[C@H]4[C@H](O)C[C@]5(C)[C@@H](C6=CC(=O)OC6)CC[C@]5(O)[C@@H]4CC[C@]3(O)C2)[C@H](O)[C@H](O)[C@H]1O [Ouabain]
- impairment of global growth (rank among four cardenolides) [1]: digoxin<digitoxin<ouabain<Compound 2
- Ki [7]: 43000 ± 19000 nM

SMILES: C[C@H]1O[C@@H](O[C@H]2[C@@H](O)C[C@H](O[C@H]3[C@@H](O)C[C@H](O[C@H]4CC[C@@]5(C)[C@H](CC[C@@H]6[C@@H]5C[C@@H](O)[C@]5(C)[C@@H](C7=CC(=O)OC7)CC[C@]65O)C4)O[C@@H]3C)O[C@@H]2C)C[C@H](O)[C@@H]1O [Digoxin, reference compound]
- Ki [2]: 930 ± 410 nM
- impairment of global growth (rank among four cardenolides) [1]: weakest
